Results from patent US4925870A, “Therapeutic use of proanthocyanidine A2 as a cytoprotective agent” (Inverni Della Beffa SpA, priority 1985, dated 1990).
“Also recorded” adds a separate entry of the source.

Legend:
rat brain homogenate = experiment: In vitro inhibition of lipid peroxidation (MDA formation) on rat brain homogenate; format: biochemical; settings: for IC50: rat brain homogenate
Method: (§1) Proanthocyanidine A2 was assayed for anti-lipid peroxidation activity "in vitro" on rat brain homogenate according to the method of Saeed S. A. et al., Biochem. Soc. Trans 9, 442-443, 1981 and on rat hepatic microsomes according to the method of Jha H. C. et al., Biochem. Pharmacol. 34 , 1367-1369, 1985. […] This activity was confirmed on a rat brain "ex vivo" test.

rat hepatic microsomes [1] = experiment: In vitro inhibition of lipid peroxidation (MDA formation) on rat hepatic microsomes; format: biochemical; settings: for IC50: in vitro, rat hepatic microsomes + NADPH + Fe^2+ ADP
rat hepatic microsomes [2] = experiment: NADPH consumption by hepatic microsomes; format: biochemical; settings: for IC50: NADPH 500 μM + Fe^2+ 20 μM + ADP 500 μM
[3] = Acute toxicity in the mouse; settings: for LD50: mouse, in vivo
Method: (§2) The acute toxicity of proanthocyanidine A2 was determined in the mouse and rat on administration by the oral and intreperitoneal routes.

[4] = Acute toxicity in the rat; settings: in vivo
Method: as §2

[5] = Activity on wound scar resistance in normal mice by oral route (force necessary for breaking a cutaneous scar); format: in vivo; settings: n = 20
Text: The method used was that of Sixth et al., Arzneim. Forsch. 18, 1460, 1968.

[6] = Wound healing activity on prednisone treated rats by topical application; format: in vivo
Text: (§3) The triterpene fraction obtained from Centella asiatica (CATS), a well-known cicatrizant or healing agent widely used in some European countries, has been chosen as comparison drug.

[7] = Wound healing activity by oral route in rats treated with prednisone; format: in vivo; settings: for Surface after 3 days of administrations (m ± s.e.) / percent variation of surface in comparison with prednisone controls: oral; for percent variation of surface in comparison with prednisone controls: after 3 days
Text: as §3

[8] = Healing (cicatrising) activity, general statement (topical and oral route, normal and steroid treated animals); settings: in vivo
[9] = Capillary resistance in rats fed on vitamin P deprived diet; format: in vivo; settings: for Percent increase (capillary resistance) in comparison with controls: n = 8
Method: The latter was evaluated by the method of Charlier R. et al., Arch. Int. Physiol. Bioch.

[10] = Anti-ulcer activity after i.p. administration on ASA induced gastric ulcers in rats; format: in vivo; settings: for Changes in U.I. in comparison with controls / No. of stomach without lesions / Ulceration index (U.I.) mean: i.p., n = 10
Text: This activity is believed to be a consequence of its healing activity and microcirculation protecting activity.

rat brain = experiment: Rat brain ex vivo anti-lipid peroxidation test
Method: as §1

[11] = Acute toxicity on topical administration; settings: administered topically

Structure (SMILES): O=c1c(O)c(-c2ccc(O)c(O)c2)oc2cc(O)cc(O)c12 [Quercetin, reference compound]
- IC50 (rat brain homogenate; in vitro): 900 nM
- column headed by drawing 2 under MDA formation (ratio of hepatic microsomes IC50 to brain homogenate IC50, by arithmetic) (rat hepatic microsomes [1]): 5.7
- IC50 (rat hepatic microsomes [1]): 5100 nM
- IC50 (rat hepatic microsomes [2]): 17000 nM
- column headed by drawing 3 (hepatic microsomes) (ratio of NADPH consumption IC50 to MDA formation IC50, by arithmetic) (rat hepatic microsomes [2]; hepatic microsomes): 3.3

Structure (SMILES): Oc1cc(O)c2c(c1)O[C@@]1(c3ccc(O)c(O)c3)Oc3cc(O)c4c(c3[C@@H]2[C@H]1O)O[C@H](c1ccc(O)c(O)c1)[C@H](O)C4 [Proanthocyanidine A2]
- LD50 ([3]; ip): > 6000 mg/kg
- LD50 ([3]; po): > 6000 mg/kg
- acute toxicity (in words) ([3]; oral and intraperitoneal routes, mouse and rat): does not exhibit significant acute toxicity
- LD50 ([4]; ip): > 3000 mg/kg
- LD50 ([4]; po): > 6000 mg/kg
- Percent increase in comparison (with controls) ([5]; 100 mg/kg): +32.5%
- Tension (m + S.E.) ([5]; 100 mg/kg): 104.11 + 4.25 g
- Percent increase in comparison (with controls) ([5]; 200 mg/kg): +46.6%
- Tension (m + S.E.) ([5]; 200 mg/kg): 115.12 + 4.90 g
- Wound area (m ± s.e.) ([6]; concentration 1%, day 0 (baseline), n = 10): 324.55 ± 3.77 mm^2
- percent variation of wound area in comparison with prednisone controls ([6]; concentration 1%, day 1): -8.17%
- Wound area (m ± s.e.) ([6]; concentration 1%, day 1, n = 10): 317.39 ± 3.37 mm^2
- percent variation of wound area in comparison with prednisone controls ([6]; concentration 1%, day 2): -9.70%
- Wound area (m ± s.e.) ([6]; concentration 1%, day 2, n = 10): 315.04 ± 3.58 mm^2
- percent variation of wound area in comparison with prednisone controls ([6]; concentration 1%, day 3): -9.60%
- Wound area (m ± s.e.) ([6]; concentration 1%, day 3, n = 10): 308.01 ± 3.77 mm^2
- Wound area (m ± s.e.) ([6]; concentration 2%, day 0 (baseline), n = 10): 327.71 ± 2.92 mm^2
- percent variation of wound area in comparison with prednisone controls ([6]; concentration 2%, day 1): -8.17%
- Wound area (m ± s.e.) ([6]; concentration 2%, day 1, n = 10): 317.39 ± 3.36 mm^2
- percent variation of wound area in comparison with prednisone controls ([6]; concentration 2%, day 2): -12.38%
- Wound area (m ± s.e.) ([6]; concentration 2%, day 2, n = 10): 305.69 ± 3.89 mm^2
- percent variation of wound area in comparison with prednisone controls ([6]; concentration 2%, day 3): -15.88%
- Wound area (m ± s.e.) ([6]; concentration 2%, day 3, n = 10): 286.62 ± 3.74 mm^2
- Surface after 3 days of administrations (m ± s.e.) ([7]; 50 mg/kg): 280.47 ± 7.01 mm^2
- percent variation of surface in comparison with prednisone controls ([7]; 50 mg/kg): -9.15%
- Surface after 3 days of administrations (m ± s.e.) ([7]; 100 mg/kg): 271.82 ± 5.35 mm^2
- percent variation of surface in comparison with prednisone controls ([7]; 100 mg/kg): -11.95%
- Surface after 3 days of administrations (m ± s.e.) ([7]; 200 mg/kg): 265.88 ± 4.38 mm^2
- percent variation of surface in comparison with prednisone controls ([7]; 200 mg/kg): -13.87%
- Surface after 3 days of administrations (m ± s.e.) ([7]; 400 mg/kg): 259.99 ± 7.72 mm^2
- percent variation of surface in comparison with prednisone controls ([7]; 400 mg/kg): -15.78%
- reduction of the area of wounds (in words) ([7]; rats, Tables 2 and 3): favourable effect
- healing activity (in words) [8]: higher than that of known drugs employed in this therapeutic field; also recorded: manifests itself by the topical and also oral route both in normal animals and in animals in which the healing process has been slowed down by treatment with steroids; also recorded: superior to that of known drugs employed in this field
- vasotropic / venotonic activity (in words) ([9]; capillary permeability and resistance): possesses a vasotropic activity in terms of modification of capillary permeability and resistance; also recorded: normalizing conditions of impaired capillary permeability and capillary fragility
- Percent increase (capillary resistance) in comparison with controls ([9]; oral 200 mg/kg × 3 days, 0 hours after third administration): 5%
- Percent increase (capillary resistance) in comparison with controls ([9]; oral 200 mg/kg × 3 days, 2 hours after third administration): 9%
- Percent increase (capillary resistance) in comparison with controls ([9]; oral 200 mg/kg × 3 days, 4 hours after third administration): 9%
- Percent increase (capillary resistance) in comparison with controls ([9]; oral 200 mg/kg × 3 days, 6 hours after third administration): 6%
- Percent increase (capillary resistance) in comparison with controls ([9]; oral 400 mg/kg × 3 days, 0 hours after third administration): 7%
- Percent increase (capillary resistance) in comparison with controls ([9]; oral 400 mg/kg × 3 days, 2 hours after third administration): 15%
- Percent increase (capillary resistance) in comparison with controls ([9]; oral 400 mg/kg × 3 days, 4 hours after third administration): 14%
- Percent increase (capillary resistance) in comparison with controls ([9]; oral 400 mg/kg × 3 days, 6 hours after third administration): 13%
- Changes in U.I. in comparison with controls ([10]; 100 mg/kg): -18,4
- No. of stomach without lesions ([10]; 100 mg/kg): 0
- Ulceration index (U.I.) mean ([10]; 100 mg/kg): 39,6
- Changes in U.I. in comparison with controls ([10]; 200 mg/kg): -28,1
- No. of stomach without lesions ([10]; 200 mg/kg): 0
- Ulceration index (U.I.) mean ([10]; 200 mg/kg): 34,9
- Changes in U.I. in comparison with controls ([10]; 400 mg/kg): -40,8
- No. of stomach without lesions ([10]; 400 mg/kg): 0
- Ulceration index (U.I.) mean ([10]; 400 mg/kg): 28,7
- anti-ulcer activity (in words) ([10]; ulcer protection tests): active in ulcer protection tests; also recorded: particularly active as an anti-ulcer agent
- anti-lipid peroxidation activity (in words) (rat brain homogenate): strong anti-lipid peroxidation activity
- IC50 (rat brain homogenate; in vitro): 450 nM
- inhibition of MDA (malondialdehyde) formation (in words) (rat brain homogenate; in vitro, rat brain homogenate and rat hepatic microsomes): strongly inhibited
- column headed by drawing 2 under MDA formation (ratio of hepatic microsomes IC50 to brain homogenate IC50, by arithmetic) (rat hepatic microsomes [1]): 1.8
- IC50 (rat hepatic microsomes [1]): 800 nM
- IC50 (rat hepatic microsomes [2]): 14000 nM
- column headed by drawing 3 (hepatic microsomes) (ratio of NADPH consumption IC50 to MDA formation IC50, by arithmetic) (rat hepatic microsomes [2]; hepatic microsomes): 17.5
- inhibiting activity on NADPH consumption (in words) (rat hepatic microsomes [2]; in vitro, hepatic microsomes): low inhibiting activity
- anti-lipid peroxidation activity ex vivo (in words) (rat brain): confirmed
- acute toxicity (in words) [11]: negligable acute toxicity
